Patent US20030181527A1, “Novel formulations of alpha-2,4-disulfophenyl-n-tert-butylnitrone” (priority 2000, published 2003)

Legend:
[1] = Stability versus vial headspace volume (fill volume); format: physicochemical; settings: 400 mg/ml; for Final Amount of Aldehyde (II): pH 8.5, headspace not purged, 2 months +40° C./75% RH
Description: A concentrated aqueous solution of α-(2,4-disulfophenyl)-N-tert-butylnitrone disodium salt (400 mg/ml) and disodium hydrogen phosphate (10.5 mM) at pH 8.5 was purged with nitrogen for 30 minutes. Either 8 ml or 13 ml portions of this solution were then placed in standard 10 ml glass vials (the maximum possible fill volume of a standard 10 ml glass vial is 13 ml). The headspace was not purged with nitrogen. The vials were sealed and stored at +40° C. and 75% relative humidity for two months.

[2] = Effect of concentration on stability, unbuffered solutions at +5° C.; format: physicochemical
Description: In a second study unbuffered aqueous solutions of α-(2,4-disulfophenyl)-N-tert-butylnitrone disodium salt (concentration either 100 mg/ml or 200 mg/ml) were dispensed into 50 ml glass vials and stored at +5° C.

[3] = Effect of concentration on stability, phosphate-buffered solutions at +5° C.; format: physicochemical; settings: 50 mM phosphate buffer
Description: In a third study aqueous solutions of α-(2,4-disulfophenyl)-N-tert-butylnitrone disodium salt (concentration either 200 mg/ml or 400 mg/ml) buffered with phosphate buffer (50 mM) were dispensed into 10 ml glass vials and stored at +5° C.

[4] = Effect of pH on stability of diluted 4 mg/ml solutions at room temperature; format: physicochemical
Text: The pH dependent degradation of aqueous solutions of α-(2,4-disulfophenyl)-N-tert-butylnitrone disodium salt has been extensively studied. […] Both solutions, which were obtained by appropriate dilution of a corresponding concentrate, were stored at room temperature under conditions that would reasonably simulate a diluted concentrate prepared ready for administration to patients.

[5] = test system: E. coli; assay: Antimicrobial efficacy (European Pharmacopoeia 2000, Chapter 5.1.3); format: cell-based
Description: (§1) The antimicrobial efficacy was tested for three different solutions: […] iii) a carbonate buffer control. The tests were performed according to European Pharmacopoeia 2000, Chapter 5.1.3, pages 259 to 260. Seven 10 ml vials were inoculated, one per test organism. During the tests, the vials were stored at controlled room temperature and protected from light. At different time intervals, samples were withdrawn and after appropriate dilutions the numbers of viable microorganisms (colony forming units per ml, CFU/ml) were determined using standard plate count procedures.

[6] = test system: E. gergoviae; assay: as above; format: cell-based; settings: for Number of CFUs per ml - Time after Inoculation: E. gergoviae
Description: as §1

[7] = test system: S. aureus; assay: as above; format: cell-based
Description: as §1

[8] = Shelf life of the preferred concentrate formulation; format: physicochemical; settings: 400 mg/ml, 5 to 50 mM disodium hydrogen phosphate, pH 8.5, nitrogen purged, sealed 20 ml vials
[9] = unbuffered 100 mg/ml, 12 months
[10] = unbuffered 200 mg/ml, 12 months
[11] = 4 mg/ml buffered with phosphate (0.53 mM), 0 days
[12] = 4 mg/ml buffered with phosphate (0.53 mM), 1 day
[13] = 4 mg/ml buffered with phosphate (0.53 mM), 2 days
[14] = 4 mg/ml buffered with phosphate (0.53 mM), 5 days
[15] = 4 mg/ml buffered with phosphate (0.53 mM), 7 days
[16] = 4 mg/ml unbuffered solution, 0 days
[17] = 4 mg/ml unbuffered solution, 1 day
[18] = 4 mg/ml unbuffered solution, 2 days
[19] = 4 mg/ml unbuffered solution, 5 days
[20] = 4 mg/ml unbuffered solution, 7 days

- Initial aldehyde level ([1]; 10.5 mM phosphate, pH 8.5, nitrogen purged, initial): 0.1%
- Final Amount of Aldehyde (II) ([1]; fill volume 8 ml in 10 ml vial): 1.1 area %
- Final Amount of Aldehyde (II) ([1]; fill volume 13 ml in 10 ml vial): 0.6 area %
- Amount of Aldehyde (II) ([2]; unbuffered 100 mg/ml, 0 months): 0.2 Area %
- pH ([2]; unbuffered 100 mg/ml, 0 months): 7.4
- Amount of Aldehyde (II) ([2]; unbuffered 100 mg/ml, 1 month): 0.5 Area %
- pH ([2]; unbuffered 100 mg/ml, 1 month): 7.5
- Amount of Aldehyde (II) ([2]; unbuffered 100 mg/ml, 3 months): 1.0 Area %
- pH ([2]; unbuffered 100 mg/ml, 3 months): 7.3
- Amount of Aldehyde (II) ([2]; unbuffered 100 mg/ml, 6 months): 1.6 Area %
- pH ([2]; unbuffered 100 mg/ml, 6 months): 7.1
- Amount of Aldehyde (II) [2, 9]: 1.6 Area %
- pH [2, 9]: 6.9
- Amount of Aldehyde (II) ([2]; unbuffered 200 mg/ml, 0 months): 0.2 Area %
- pH ([2]; unbuffered 200 mg/ml, 0 months): 7.6
- Amount of Aldehyde (II) ([2]; unbuffered 200 mg/ml, 1 month): 0.4 Area %
- pH ([2]; unbuffered 200 mg/ml, 1 month): 7.6
- Amount of Aldehyde (II) ([2]; unbuffered 200 mg/ml, 3 months): 0.6 Area %
- pH ([2]; unbuffered 200 mg/ml, 3 months): 7.4
- Amount of Aldehyde (II) ([2]; unbuffered 200 mg/ml, 6 months): 0.8 Area %
- pH ([2]; unbuffered 200 mg/ml, 6 months): 7.4
- Amount of Aldehyde (II) [2, 10]: 1.1 Area %
- pH [2, 10]: 6.9
- Amount of Aldehyde (II) ([3]; 200 mg/ml, 0 months): 0.1 Area %
- pH ([3]; 200 mg/ml, 0 months): 8.0
- Amount of Aldehyde (II) ([3]; 200 mg/ml, 6 months): 0.4 Area %
- pH ([3]; 200 mg/ml, 6 months): 7.9
- Amount of Aldehyde (II) ([3]; 200 mg/ml, 12 months): 0.6 Area %
- pH ([3]; 200 mg/ml, 12 months): 7.9
- Amount of Aldehyde (II) ([3]; 200 mg/ml, 18 months): 0.7 Area %
- pH ([3]; 200 mg/ml, 18 months): 8.0
- Amount of Aldehyde (II) ([3]; 400 mg/ml, 0 months): 0.1 Area %
- pH ([3]; 400 mg/ml, 0 months): 8.0
- Amount of Aldehyde (II) ([3]; 400 mg/ml, 6 months): 0.3 Area %
- pH ([3]; 400 mg/ml, 6 months): 7.8
- Amount of Aldehyde (II) ([3]; 400 mg/ml, 12 months): 0.4 Area %
- pH ([3]; 400 mg/ml, 12 months): 7.8
- Amount of Aldehyde (II) ([3]; 400 mg/ml, 18 months): 0.4 Area %
- pH ([3]; 400 mg/ml, 18 months): 7.9
- Amount of Aldehyde (II) [4, 11]: 0.8 Area %
- pH [4, 11]: 8.0
- Amount of Aldehyde (II) [4, 12]: 0.9 Area %
- pH [4, 12]: 7.9
- Amount of Aldehyde (II) [4, 13]: 0.9 Area %
- pH [4, 13]: 7.7
- Amount of Aldehyde (II) [4, 14]: 1.0 Area %
- pH [4, 14]: 7.5
- Amount of Aldehyde (II) [4, 15]: 1.1 Area %
- pH [4, 15]: 7.5
- Amount of Aldehyde (II) [4, 16]: 0.9 Area %
- pH [4, 16]: 6.8
- Amount of Aldehyde (II) [4, 17]: 1.1 Area %
- pH [4, 17]: 6.8
- Amount of Aldehyde (II) [4, 18]: 1.2 Area %
- pH [4, 18]: 6.8
- Amount of Aldehyde (II) [4, 19]: 1.6 Area %
- pH [4, 19]: 6.8
- Amount of Aldehyde (II) [4, 20]: 2.0 Area %
- pH [4, 20]: 6.7
- Remains in useable condition ([8]; stored at room temperature): at least 6 months
- Shelf life ([8]; stored refrigerated (approximately 2 to 8° C.)): at least 24 months
Compound: CC(C)(C)[N+]([O-])=Cc1ccc(S(=O)(=O)[O-])cc1S(=O)(=O)[O-].[Na+].[Na+] [α-(2,4-disulfophenyl)-N-tert-butylnitrone disodium salt]
- Number of CFUs per ml - Time after Inoculation ([5]; 10 mg/ml, 6 h): 9.0 × 10^5 CFUs per ml
- Number of CFUs per ml - Time after Inoculation ([5]; 10 mg/ml, 24 h): 5.0 × 10^4 CFUs per ml
- Number of CFUs per ml - Time after Inoculation ([5]; 10 mg/ml, 48 h): ≦10 CFUs per ml
- Number of CFUs per ml - Time after Inoculation ([5]; 10 mg/ml, 7 days): <1 CFUs per ml
- Number of CFUs per ml - Time after Inoculation ([5]; 10 mg/ml, 14 days): <1 CFUs per ml
- Number of CFUs per ml - Time after Inoculation ([5]; 10 mg/ml, 21 days): <1 CFUs per ml
- Number of CFUs per ml - Time after Inoculation ([5]; 10 mg/ml, 28 days): <1 CFUs per ml
- Number of CFUs per ml - Time after Inoculation ([5]; 10 mg/ml, <1 min): 1.5 × 10^6 CFUs per ml
- Number of CFUs per ml - Time after Inoculation ([5]; 400 mg/ml, 6 h): 4.1 × 10^4 CFUs per ml
- Number of CFUs per ml - Time after Inoculation ([5]; 400 mg/ml, 24 h): <1 CFUs per ml
- Number of CFUs per ml - Time after Inoculation ([5]; 400 mg/ml, 48 h): <1 CFUs per ml
- Number of CFUs per ml - Time after Inoculation ([5]; 400 mg/ml, 7 days): <1 CFUs per ml
- Number of CFUs per ml - Time after Inoculation ([5]; 400 mg/ml, 14 days): <1 CFUs per ml
- Number of CFUs per ml - Time after Inoculation ([5]; 400 mg/ml, 21 days): <1 CFUs per ml
- Number of CFUs per ml - Time after Inoculation ([5]; 400 mg/ml, 28 days): <1 CFUs per ml
- Number of CFUs per ml - Time after Inoculation ([5]; 400 mg/ml, <1 min): 3.8 × 10^5 CFUs per ml
- Number of CFUs per ml - Time after Inoculation ([6]; 10 mg/ml, 6 h): 2.0 × 10^5 CFUs per ml
- Number of CFUs per ml - Time after Inoculation ([6]; 10 mg/ml, 24 h): ≦10 CFUs per ml
- Number of CFUs per ml - Time after Inoculation ([6]; 10 mg/ml, 48 h): <1 CFUs per ml
- Number of CFUs per ml - Time after Inoculation ([6]; 10 mg/ml, 7 days): <1 CFUs per ml
- Number of CFUs per ml - Time after Inoculation ([6]; 10 mg/ml, 14 days): <1 CFUs per ml
- Number of CFUs per ml - Time after Inoculation ([6]; 10 mg/ml, 21 days): <1 CFUs per ml
- Number of CFUs per ml - Time after Inoculation ([6]; 10 mg/ml, 28 days): <1 CFUs per ml
- Number of CFUs per ml - Time after Inoculation ([6]; 10 mg/ml, <1 min): 8.0 × 10^5 CFUs per ml
- Reduction in colony forming units per ml (CFU/ml) ([6]; 400 mg/ml, E. gergovia, within 6 hours): ≥ 10^3 fold
- Number of CFUs per ml - Time after Inoculation ([6]; 400 mg/ml, 6 h): 1.3 × 10^2 CFUs per ml
- Number of CFUs per ml - Time after Inoculation ([6]; 400 mg/ml, 24 h): <1 CFUs per ml
- Number of CFUs per ml - Time after Inoculation ([6]; 400 mg/ml, 48 h): <1 CFUs per ml
- Number of CFUs per ml - Time after Inoculation ([6]; 400 mg/ml, 7 days): <1 CFUs per ml
- Number of CFUs per ml - Time after Inoculation ([6]; 400 mg/ml, 14 days): <1 CFUs per ml
- Number of CFUs per ml - Time after Inoculation ([6]; 400 mg/ml, 21 days): <1 CFUs per ml
- Number of CFUs per ml - Time after Inoculation ([6]; 400 mg/ml, 28 days): <1 CFUs per ml
- Number of CFUs per ml - Time after Inoculation ([6]; 400 mg/ml, <1 min): 5.2 × 10^5 CFUs per ml
- Number of CFUs per ml - Time after Inoculation ([7]; 10 mg/ml, 6 h): 4.5 × 10^5 CFUs per ml
- Number of CFUs per ml - Time after Inoculation ([7]; 10 mg/ml, 24 h): 4.5 × 10^3 CFUs per ml
- Number of CFUs per ml - Time after Inoculation ([7]; 10 mg/ml, 48 h): ≦10 CFUs per ml
- Number of CFUs per ml - Time after Inoculation ([7]; 10 mg/ml, 7 days): <1 CFUs per ml
- Number of CFUs per ml - Time after Inoculation ([7]; 10 mg/ml, 14 days): <1 CFUs per ml
- Number of CFUs per ml - Time after Inoculation ([7]; 10 mg/ml, 21 days): <1 CFUs per ml
- Number of CFUs per ml - Time after Inoculation ([7]; 10 mg/ml, 28 days): <1 CFUs per ml
- Number of CFUs per ml - Time after Inoculation ([7]; 10 mg/ml, <1 min): 2.0 × 10^6 CFUs per ml
- Number of CFUs per ml - Time after Inoculation ([7]; 400 mg/ml, 6 h): 6.7 × 10^5 CFUs per ml
- Number of CFUs per ml - Time after Inoculation ([7]; 400 mg/ml, 24 h): 8.7 × 10^2 CFUs per ml
- Number of CFUs per ml - Time after Inoculation ([7]; 400 mg/ml, 48 h): 3.8 × 10^2 CFUs per ml
- Number of CFUs per ml - Time after Inoculation ([7]; 400 mg/ml, 7 days): <1 CFUs per ml
- Number of CFUs per ml - Time after Inoculation ([7]; 400 mg/ml, 14 days): <1 CFUs per ml
- Number of CFUs per ml - Time after Inoculation ([7]; 400 mg/ml, 21 days): <1 CFUs per ml
- Number of CFUs per ml - Time after Inoculation ([7]; 400 mg/ml, 28 days): <1 CFUs per ml
- Number of CFUs per ml - Time after Inoculation ([7]; 400 mg/ml, <1 min): 3.3 × 10^6 CFUs per ml
